Experimental findings from ChEMBL document CHEMBL3739361, “Design, facile synthesis and anthelmintic activity of new O-substituted 6-methoxybenzothiazole-2-carbamates” (2015) are described below.

The term mortality denotes the share of the test organisms that died.

What all share (type): functional
In experiment [1] the test system is Paramphistomum. The experiment in a line: Antihelmintic activity against rumen flukes assessed as mortality at 80 ug/ml after 1 hr relative to control.
Experiment [2] has as its system Paramphistomum. Nature of the experiment: Antihelmintic activity against rumen flukes assessed as mortality at 80 ug/ml after 6 hrs relative to control.
In experiment [3] the test system is Paramphistomum. Nature of the experiment: Antihelmintic activity against rumen flukes assessed as mortality at 80 ug/ml after 4 hrs relative to control.
Experiment [4] has as its system Paramphistomum. The experiment in a line: Antihelmintic activity against rumen flukes assessed as mortality at 40 ug/ml after 6 hrs relative to control.
Experiment [5] deals with Paramphistomum. The experiment in a line: Antihelmintic activity against rumen flukes assessed as mortality at 40 ug/ml after 4 hrs relative to control.
Experiment [6] deals with Paramphistomum. The experiment in a line: Antihelmintic activity against rumen flukes assessed as mortality at 40 ug/ml after 1 hr relative to control.
Experiment [7] relates to Paramphistomum. The experiment in a line: Antihelmintic activity against rumen flukes assessed as mortality at 80 ug/ml after 2 hrs relative to control.
Experiment [8] concerns Paramphistomum. The experiment in a line: Antihelmintic activity against rumen flukes assessed as mortality at 40 ug/ml after 2 hrs relative to control.

With `COC(=O)Nc1nc2ccc(OCC(=O)NNS(=O)(=O)c3ccc(C)cc3)cc2s1`, the mortality at 80 µg/mL in the experiment with Paramphistomum [1] was 20%; in the experiment with Paramphistomum [2] it was 40%; in the experiment with Paramphistomum [3], 30%; in the experiment with Paramphistomum [7] it was 20%. Besides, the mortality at 40 µg/mL was found to be 30% in the experiment on Paramphistomum [4], 20% in the experiment with Paramphistomum [5], 10% in the experiment on Paramphistomum [6] and 10% in the experiment with Paramphistomum [8].
With `COC(=O)Nc1nc2ccc(OCC(=O)N/N=C/c3ccc(Cl)cc3)cc2s1` (mixture of isomers), the mortality at 80 µg/mL came out at 20% in the experiment on Paramphistomum [1], 60% with Paramphistomum [2], 50% in the experiment on Paramphistomum [3] and 30% in the experiment on Paramphistomum [7]. For the same compound, the mortality at 40 µg/mL came out at 20% in the experiment on Paramphistomum [4], 10% in the experiment on Paramphistomum [5], 0% in the experiment with Paramphistomum [6] and 0% with Paramphistomum [8].
As for `COC(=O)Nc1nc2ccc(OCC(=O)N/N=C/c3ccccc3OC(=O)OC)cc2s1` (mixture of isomers), the mortality at 80 µg/mL stood at 10% in the experiment with Paramphistomum [1], 20% in the experiment with Paramphistomum [2], 20% in the experiment on Paramphistomum [3] and 20% with Paramphistomum [7]. Moreover, the mortality at 40 µg/mL with Paramphistomum [4], with Paramphistomum [5], in the experiment on Paramphistomum [6] and in the experiment with Paramphistomum [8] was 10% throughout.
As for `CC(=O)Nc1nc2ccc(OCC3=NN(C(C)=O)C(c4ccc(Cl)cc4)O3)cc2s1` (stereo not given), the mortality at 80 µg/mL in the experiment on Paramphistomum [1] amounted to 20%; in the experiment on Paramphistomum [2] it was 100%; in the experiment on Paramphistomum [3] it was 80%; with Paramphistomum [7], 50%. Besides, the mortality at 40 µg/mL in the experiment on Paramphistomum [4] is 60%; in the experiment on Paramphistomum [5], 50%; in the experiment on Paramphistomum [6], 20%; in the experiment on Paramphistomum [8] it was 40%.
`COC(=O)Nc1nc2ccc(OCC(=O)N/N=C(\C)c3ccc(Br)cc3)cc2s1` (mixture of isomers): the mortality at 80 µg/mL in the experiment on Paramphistomum [1] worked out at 20%; in the experiment on Paramphistomum [2], 30%; in the experiment with Paramphistomum [3], 30%; with Paramphistomum [7], 20%. Also, the mortality at 40 µg/mL in the experiment with Paramphistomum [4], in the experiment on Paramphistomum [5], in the experiment on Paramphistomum [6] and in the experiment on Paramphistomum [8] was 10% throughout.
For `COC(=O)Nc1nc2ccc(OCC(=O)N/N=C/c3ccccc3)cc2s1` (mixture of isomers), the mortality at 80 µg/mL with Paramphistomum [1] was determined as 10%; in the experiment with Paramphistomum [2] it was 40%; with Paramphistomum [3] it was 20%; in the experiment with Paramphistomum [7], 20%. The mortality at 40 µg/mL in the experiment with Paramphistomum [4] came out at 20%; in the experiment on Paramphistomum [5] it was 10%; in the experiment on Paramphistomum [6], 10%; with Paramphistomum [8], 10%.
In the case of `CC(=O)Nc1nc2ccc(OCC3=NN(C(C)=O)C(c4ccc([N+](=O)[O-])cc4)O3)cc2s1` (stereo not given), the mortality at 80 µg/mL with Paramphistomum [1] was determined as 20%; in the experiment on Paramphistomum [2], 100%; with Paramphistomum [3], 70%; in the experiment on Paramphistomum [7], 50%. The mortality at 40 µg/mL with Paramphistomum [4] came out at 70%; in the experiment on Paramphistomum [5], 40%; in the experiment on Paramphistomum [6], 10%; in the experiment with Paramphistomum [8] it was 30%.
As for `COC(=O)Nc1nc2ccc(OCC(=O)N/N=C/c3ccc([N+](=O)[O-])cc3)cc2s1` (mixture of isomers), the mortality at 80 µg/mL in the experiment on Paramphistomum [1], in the experiment on Paramphistomum [2], in the experiment with Paramphistomum [3] and with Paramphistomum [7] was 20% each time. The mortality at 40 µg/mL in the experiment with Paramphistomum [4], in the experiment on Paramphistomum [5], with Paramphistomum [6] and in the experiment with Paramphistomum [8] was 10% in each case.
`COC(=O)Nc1nc2ccc(OCC(=O)N/N=C(\C)c3ccccc3)cc2s1` (mixture of isomers): the mortality at 80 µg/mL in the experiment on Paramphistomum [1] was determined as 20%; with Paramphistomum [2] it was 30%; in the experiment with Paramphistomum [3], 20%; with Paramphistomum [7] it was 20%. Also, the mortality at 40 µg/mL was 20% in the experiment on Paramphistomum [4], 10% with Paramphistomum [5], 10% with Paramphistomum [6] and 10% in the experiment with Paramphistomum [8].
On to `COC(=O)NNC(=O)COc1ccc2nc(NC(=O)OC)sc2c1`, for which the mortality at 80 µg/mL in the experiment with Paramphistomum [1] came out at 30%; in the experiment on Paramphistomum [2] it was 80%; in the experiment with Paramphistomum [3] it was 70%; in the experiment with Paramphistomum [7] it was 40%. The mortality at 40 µg/mL in the experiment with Paramphistomum [4] worked out at 40%; in the experiment on Paramphistomum [5], 30%; in the experiment with Paramphistomum [6], 10%; in the experiment on Paramphistomum [8] it was 20%.
As to `COC(=O)Nc1nc2ccc(OCC(=O)NNS(=O)(=O)c3ccccc3)cc2s1`, the mortality at 80 µg/mL in the experiment on Paramphistomum [1] was determined as 20%; with Paramphistomum [2] it was 50%; with Paramphistomum [3], 40%; in the experiment on Paramphistomum [7], 30%. Moreover, the mortality at 40 µg/mL amounted to 30% with Paramphistomum [4], 20% with Paramphistomum [5], 10% in the experiment with Paramphistomum [6] and 10% in the experiment on Paramphistomum [8].
Regarding `CC(=O)Nc1nc2ccc(OCC3=NN(C(C)=O)C(c4ccccc4)O3)cc2s1` (stereo not given), the mortality at 80 µg/mL turned out to be 0% with Paramphistomum [1], 10% with Paramphistomum [2], 10% in the experiment on Paramphistomum [3] and 0% with Paramphistomum [7]. Further, the mortality at 40 µg/mL in the experiment on Paramphistomum [4], in the experiment on Paramphistomum [5], in the experiment with Paramphistomum [6] and in the experiment on Paramphistomum [8] was 0% each time.
With `COC(=O)Nc1nc2ccc(OCC(=O)N/N=C/c3ccco3)cc2s1`, the mortality at 80 µg/mL in the experiment with Paramphistomum [1] turned out to be 30%; in the experiment on Paramphistomum [2] it was 70%; with Paramphistomum [3], 60%; in the experiment with Paramphistomum [7] it was 40%. Moreover, the mortality at 40 µg/mL with Paramphistomum [4] came to 40%; in the experiment on Paramphistomum [5] it was 30%; in the experiment with Paramphistomum [6], 10%; in the experiment with Paramphistomum [8] it was 20%.
For the compound `O=C(Nc1cc(Cl)cc(Cl)c1O)c1c(O)c(Cl)cc(Cl)c1Cl` [OXYCLOZANIDE], the mortality at 80 µg/mL with Paramphistomum [1] came to 50%; in the experiment on Paramphistomum [7], 100%. Further, the mortality at 40 µg/mL with Paramphistomum [5] came out at 100%; in the experiment with Paramphistomum [6], 30%; with Paramphistomum [8], 70%.
Consider `COC(=O)Nc1nc2ccc(OCC(=O)N/N=C(\C)c3ccc(C)cc3)cc2s1` (mixture of isomers), for which the mortality at 80 µg/mL in the experiment with Paramphistomum [1], with Paramphistomum [2], with Paramphistomum [3] and in the experiment on Paramphistomum [7] was 20% each time. For the same compound, the mortality at 40 µg/mL in the experiment on Paramphistomum [4], in the experiment on Paramphistomum [5], with Paramphistomum [6] and in the experiment with Paramphistomum [8] was 10% throughout.
`COC(=O)Nc1nc2ccc(OCC(=O)N/N=C(\C)c3ccc(Cl)cc3)cc2s1` (mixture of isomers): the mortality at 80 µg/mL in the experiment with Paramphistomum [1] came out at 30%; in the experiment on Paramphistomum [2], 70%; in the experiment with Paramphistomum [3], 50%; in the experiment on Paramphistomum [7] it was 40%. The mortality at 40 µg/mL was determined as 40% with Paramphistomum [4], 30% in the experiment with Paramphistomum [5], 10% with Paramphistomum [6] and 10% in the experiment on Paramphistomum [8].
